# Source: patent US11130960B2, “Methods for conferring or enhancing herbicide resistance on plants and/or alga with protoporphyrinogen oxidase variants” (FARM HANNONG CO., LTD., priority 2014, dated 2021)
# Tests used:
# CyPPO2 variant = experiment: Growth inhibition of BT3(ΔPPO) E. coli transformed with 98% homology variant, LB solid medium; assay type: cell-based, Oscillatoria nigro-viridis PCC 7112; settings: 1% agar LB solid medium, 37° C., 14~16 hours, light
# Description: (§1) To investigate amino acid sequence homology range of CyPPO2, CyPPO4 and CyPPO8 which maintain herbicide resistance, a part of the amino acid sequence of CyPPO2, CyPPO4 or CyPPO8 protein was replaced by a part of the amino acid sequence of NtPPO (tobacco-derived PPO gene). As a result, the amino acid sequence of the resulting CyPPO2 variant is represented by SEQ ID NO: 12, and its nucleotide sequence thereof is represented by SEQ ID NO: 13. […] Further, the amino acid sequence of the CyPPO4 variant is represented by SEQ ID NO: 14, and its nucleotide sequence thereof is represented by SEQ ID NO: 15. […] Further, the amino acid sequence of the CyPPO8 variant is represented by SEQ ID NO: 16, and its nucleotide sequence thereof is represented by SEQ ID NO: 17.
# (§2) Herbicide resistance of the amino acid sequence variant of CyPPO2, the amino acid sequence variant of CyPPO4, and the amino acid sequence variant of CyPPO8 was investigated in PPO-deficient BT3 E. coli [BT3(ΔPPO)], and a specific experimental method is similar to that of Example 3. In the same manner as in Example 3, as a negative control, the wild-type PPO (wild-type AtPPO1) of Arabidopsis thaliana was employed as a reference for herbicide-sensitivity. As a positive control, the mutant AtPPO1 which was prepared by amino acid replacement of Y426M and S305L in the wild-type amino acid sequence was employed as a reference for herbicide-resistance.
# (§3) An autoclave was used under conditions of 121° C. and 15 minutes, and an incubator was used at 37° C. with lighting of 169 μmol m^−2 s^−1 for a culture time of 14˜16 hours. A UV-visible spectrophotometer was used at 600 nm. PCR was performed under conditions of at 94° C. for 4 minutes, and 25 cycles (at 94° C. for 30 seconds, at 56˜60° C. for 30 seconds and at 72° C. for 3 minutes), at 72° C. for 5 minutes and at 4° C. for 5 minutes. Respective herbicides were prepared at a concentration of 200 mM in DMSO, and stored at −20° C. Before use, the herbicides were diluted and added to LB broth medium (containing […]).
# (§4) Saturated cells were inoculated in 3 ml of LB liquid medium containing chloramphenicol, and then cultured at 37° C., 200 rpm for 5 hours. Density of the cultured cells was measured at 600 nm, and the transformants were diluted with LB liquid medium to have the same absorbance (OD600) per 1 ml thereof (OD600=0.5). Agar was added to LB liquid medium at a concentration of 1%, and then autoclaved. Chloramphenicol (34 μg/ml) and herbicide were added and mixed. Cells diluted equally was diluted at a density of 10^0, 10^−1, 10^−2, 10^−3, 10^−4, and 10^−5. Each 10 μl of the cells was dropped on 1% agar, LB solid medium, and cultured in a 37° C. incubator for 14˜16 hours (light condition: 169 μmol m^−2s^−1).
# (§5) To prepare BT3(ΔPPO) competent cells, BT3(ΔPPO) strain was added to 5 ml of LB broth containing 50 μg/ml kanamycin and 20 μg/ml hematin, and cultured in a 37° C. shaking incubator for 12 hours in the dark. Thereafter, 5 ml of the culture was added to 100 ml of LB broth containing 20[…] μg/ml hematin, and cultured in a 37° C. shaking incubator in the dark until OD600 reached 0.5. BT3(ΔPPO) competent cells were prepared from the cultured E. coli using CaCl2 according to protocols for preparing competent cells. Next, to transform the BT3(ΔPPO) strain with the respective vectors harboring the CyPPO2 variant, CyPPO4 variant and CyPPO8 variant, 5 μl of the vector was added to 100 μl of BT3(ΔPPO) competent cells, and the mixture was mixed well, allowed to react on ice for 20 minutes, and then left at 42° C. for 40 seconds. After stabilization on ice for 2 minutes, 1 ml of LB broth was added to BT3(ΔPPO), and cultured at 37° C. for 1 hour with shaking. The cells cultured in the medium were collected according to the type of the gene insert, and then spread on LB solid medium containing chloramphenicol (34 μg/ml), and cultured at 37° C. for 12 hours or longer. Thereafter, single colonies thereof were cultured in LB liquid medium. […]
# CyPPO4 variant = experiment: as above; assay type: cell-based, Lyngbya sp. PCC 8106; settings: 1% agar LB solid medium, 37° C., 14~16 hours, light
# Description: as §1, §2, §3, §4, §5
Structure (SMILES),concentration at which growth inhibition was hardly observed (CyPPO2 variant) [µM],concentration at which growth inhibition was hardly observed (CyPPO4 variant) [µM]
CS(=O)(=O)NC(=O)c1cc(Oc2ccc(C(F)(F)F)cc2Cl)ccc1[N+](=O)[O-] [Fomesafen],25,25
COC(=O)CSc1cc(/N=c2\sc(=O)n3n2CCCC3)c(F)cc1Cl [Fluthiacet-methyl],25,25
Cc1nn(-c2cc(NS(C)(=O)=O)c(Cl)cc2Cl)c(=O)n1C(F)F [Sulfentrazone],25,25
CCOc1cc(Oc2ccc(C(F)(F)F)cc2Cl)ccc1[N+](=O)[O-] [Oxyfluorfen],25,25
CC(C)N(C)S(=O)(=O)NC(=O)c1cc(-n2c(=O)cc(C(F)(F)F)n(C)c2=O)c(F)cc1Cl [Saflufenacil],25,25
CC(C)=C1OC(=O)N(c2cc(OC3CCCC3)c(Cl)cc2F)C1=O [Pentoxazone],25,25
C#CCN(C)c1c(C#N)cnn1-c1nn2c(c1Cl)CCCC2 [Pyraclonil],25,25
C=CCOC(=O)C(C)(C)OC(=O)c1cc(-n2c(=O)cc(C(F)(F)F)n(C)c2=O)ccc1Cl [Butafenacil],25,25
COC(=O)CCNC(=O)C(C)Sc1cc(-n2c(=O)cc(C(F)(F)F)n(C)c2=O)c(F)cc1Cl (centres unmarked) [Tiafenacil],25,25
C#CCN1C(=O)COc2cc(F)c(N3C(=O)C4=C(CCCC4)C3=O)cc21 [Flumioxazin],25,25
CCOC(=O)COc1cc(-c2nn(C)c(OC(F)F)c2Cl)c(F)cc1Cl [Pyraflufen-ethyl],25,25
O=C(O)c1cc(Oc2ccc(C(F)(F)F)cc2Cl)ccc1[N+](=O)[O-] [Acifluorfen],25,25
CC(C)Oc1cc(-n2nc(C(C)(C)C)oc2=O)c(Cl)cc1Cl [Oxadiazon],25,25
